Where two headings read alike, the source gives them in different places. Marks after values point to notes of the source that are not given here.
Columns and labels:
[1] = test system: Human KB-3-1 (bucal epidermoïde carcinoma) cell; assay: In vitro cytotoxicity on human KB-3-1 cells (procedure of Example 27)
Protocol: (§2) Murine leukaemia L1210 was used in vitro. The cells are cultured in RPMI 1640 complete culture medium containing 10% foetal calf serum, 2 mM glutamine, 50 units/ml of penicillin, 50 μg/ml of streptomycin and 10 mM Hepes, pH: 7.4. The cells are distributed on microplates and exposed to the cytotoxic compounds for 4 doubling periods, or 48 hours. The number of viable cells is then quantified by means of a colorimetric assay, the Microculture Tetrazolium Assay (J. Carmichael et al., Cancer Res., 47, 936–942, (1987)). The results are expressed as IC50, the concentration of cytotoxic agent which inhibits the proliferation of the treated cells by 50%.

[2] = test system: C38 adenocarcinoma of the colon; assay: Anti-tumour activity with respect to C38 adenocarcinoma of the colon in mice; format: in vivo; settings: for T/C (tumor growth), C38: Table 3; for anti-tumour activity (% T/C): C38 s.c. in B6D2F1 mice, tumour volume
Protocol: Tumour fragments of C38 adenocarcinoma of the colon weighing approximately 30 mg were implanted under the skin of B6D2F1 mice (Iffa Credo, France) on day 0.
After growth of the tumour, the mice were divided into control (18 animals) and treated (6 or 7 animals) groups, which were homogeneous with respect to tumour size. The products were administered by the i.v. route once per week for 3 weeks (on days 10, 17 and 24), at their Maximum Tolerated Dose (MTD), MTD/2 and MTD/4. The tumours were measured twice a week and the tumour volumes were calculated according to the following formula: volume (mm^3)=length (mm)×breadth (mm^2)/2. The anti-tumour activity is expressed as % T/C:
[formula] V0 and Vt being the initial volume of the tumour and its volume at measurement time t, respectively.
The optimum dose is the dose giving the lowest T/C value without toxicity (early death or weight loss greater than 20%).
The procedure used in the anti-tumour activity with respect to C38 adenocarcinoma is the same as the procedure described in the present application at Example 28.

Murine leukaemia L1210 [3] = assay: In vitro cytotoxicity on murine leukaemia L1210 (Microculture Tetrazolium Assay)
Protocol: as §2

[4] = test system: human A549 non-small cell lung carcinoma; assay: Anti-tumour activity on A549 lung carcinoma in nude mice; format: in vivo; settings: A549 in pleural space of nude mice, median survival time
Protocol: (§1) The anti-tumour activity of the compounds against the human A549 non-small cell lung carcinoma was evaluated essentially as described (Kraus-Berthier, L., Jan, M., Guilbaud, N., Naze, M., Pierré, A., and Atassi, G. Histology and sensitivity to anticancer drugs of two human non-small cell lung carcinomas implanted in the pleural cavity of nude mice. Clinical Cancer Res., 6, 297–304, 2000). Briefly, 10^6 A549 cells were implanted through the chest wall into the left pleural space of nude mice in a volume of 100 μl. Compounds were administered i.v. at three doses on days 14 and 24 after tumor graft. Animal mortality was checked daily and the anti-tumour activity was expressed as T/C %=(median survival time of treated group/median survival time of control group)×100. Results given in table 3 are the highest T/C values obtained at the maximum non-toxic dose, i.e. the optimal dose.

[5] = test system: human IGROV1 ovarian carcinoma; assay: Anti-tumour activity on IGROV1 ovarian carcinoma in nude mice; format: in vivo; settings: IGROV1 i.p. in nude mice, 12.5 mg/kg i.v. days 4 and 14, optimal dose; median survival time
Protocol: as §1
The anti-tumour activity of the compounds against the human IGROV1 ovarian carcinoma was evaluated essentially as described (Burbridge, M. F., Kraus-Berthier, L., Naze, M., Pierré, A., Atassi, G. and Guilbaud, N. Biological and pharmacological characterization of three models of human ovarian carcinoma established in nude mice: use of the CA125 tumor marker to predict antitumor activity. Int. J. Oncol., 15, 1155–1162, 1999). […] The anti-tumour activity was evaluated as described above for A549 lung carcinoma.

Murine leukaemia L1210 [6] = test system: Murine leukaemia L1210
Protocol: as §2

[7] = test system: Human KB-3-1 (bucal epidermoïde carcinoma) cell
Protocol: as §2

P388 (murine leukaemia) = assay: Anti-tumour activity with respect to P388 leukaemia in mice; format: in vivo; settings: P388 i.p. in B6D2F1 mice, products i.v. on day 1
Protocol: Line P388 (murine leukaemia) was supplied by the National Cancer Institute (Frederick, USA). The tumour cells (10^6 cells) were inoculated on day 0 into the peritoneal cavity of female B6D2F1 mice (Iffa Credo, France). Six mice weighing from 18 to 20 g were used in each test group. The products were administered by the intravenous route on day 1. The anti-tumour activity is expressed as % T/C: […]

[8] = Homo sapiens, KB 3-1, read-out: IC50 (μM), Cytotoxicity on Human KB-3-1 (bucal epidermoïde carcinoma) cell
[9] = Mus musculus, L1210, read-out: IC50 (μM), Cytotoxicity on Murine L 1210 cells

## Cn1c2cc3ccccc3cc2c(=O)c2c(OCCO)cc3c(c21)C=CC(C)(C)O3 [Example 1, 6(2-Hydroxyethoxy)-3,3,14-trimethyl-3,14-dihydro-7H-benzo[b]-pyrano[3,2-h]acridin-7-one]
[1]; [8]
  IC50: 0.5 µM

## COc1cc2c(c3c1c(=O)c1cc4ccccc4cc1n3C)[C@H](OC(=O)N(C)C)[C@H](OC(=O)N(C)C)C(C)(C)O2 [Example 11, (1S,2S)-1-{[(Dimethylamino)carbonyl]oxy}-6-methoxy-3,3,14-trimethyl-7-oxo-2,3,7,14-tetrahydro-1H-benzo[b]pyrano[3,2-h]acridin-2-yl dimethylcarbamate]
[2]; C38, dose 25 mg/kg i.v.
  T/C (tumor growth), C38: 41%^a
[2]; i.v. days 10, 17 and 24, optimum dose of 25 mg/kg
  anti-tumour activity (% T/C): 41%
[1]; [8]
  IC50: 0.4 µM
Murine leukaemia L1210 [3]; Mus musculus, L1210, 48 h
  IC50: 0.78 µM
Murine leukaemia L1210 [3]; [9]
  IC50: 0.8 µM

## (±)-cis-1,2-Dipentenoyloxy-6-methoxy-3,3,14-trimethyl-2,3,7,14-tetrahydro-1H-benzo[b]pyrano[3,2-h]acridin-7-one [Example 7]
[2]; C38, dose 25 mg/kg i.v.
  T/C (tumor growth), C38: 12%^a
[2]; i.v. days 10, 17 and 24, optimum dose of 12.5 mg/kg
  anti-tumour activity (% T/C): 30%
[4]; 12.5 mg/kg i.v. days 14 and 24, optimal dose
  T/C (survival), A549: 218%^b
[5]
  T/C (survival), IGROV1: 148%^b
[1]; read-out: IC50 (μM), Cytotoxicity on Human KB-3-1 (bucal epidermoïde carcinoma) cell, KB-3-1 cells, procedure of Example 27, Table 2
  IC50: 0.14 µM
Murine leukaemia L1210 [3]; L1210 cells, exposure 4 doubling periods or 48 hours
  IC50: 0.52 µM
Murine leukaemia L1210 [3]; read-out: IC50 (μM), Cytotoxicity on Murine L 1210 cells, L1210 cells, procedure of Example 27, Table 1
  IC50: 0.5 µM

## CCN(CC)C(=O)O[C@@H]1c2c(cc(OC)c3c(=O)c4cc5ccccc5cc4n(C)c23)OC(C)(C)[C@@H]1OC(=O)N(CC)CC (racemic) [Example 23, (±)-cis-1-{[(Diethylamino)carbonyl]oxy}-6-methoxy-3,3,14-trimethyl-7-oxo-2,3,7,14-tetrahydro-1H-benzo[b]pyrano[3,2-h]acridin-2-yl diethylcarbamate]
Murine leukaemia L1210 [3]; [9]
  IC50: 0.9 µM

## (±)-cis-1-Hydroxy-6-methoxy-2-pentenoyloxy-3,3,14-trimethyl-2,3,7,14-tetrahydro-1H-benzo[b]pyrano[3,2-h]acridin-7-one [Example 8]
[2]; C38, dose 50 mg/kg i.v.
  T/C (tumor growth), C38: 15%^a
[4]; 25 mg/kg i.v. days 14 and 24, optimal dose
  T/C (survival), A549: 340%^b
Murine leukaemia L1210 [6]
  IC50: 900 nM
[7]
  IC50: 100 nM

## COc1cc2c(c3c1c(=O)c1ccccc1n3C)C=CC(C)(C)O2 [acronycine, reference compound]
P388 (murine leukaemia)
  T/C: only marginally active
[2]; i.v. days 10, 17 and 24, optimum dose of 100 mg/kg
  anti-tumour activity (% T/C): 27%

Reference: patent publication US7056929B2, “Benzo[b]pyrano[3,2-h]acridin-7-one compounds” (Les Laboratoires Servier, priority 2001, dated 2006)
